Experiments:
HL-60 cells = conditions: cited from earlier work; for amount at which desired cellular responses occurred: priming experiments
[1] = tested on: Staph aureus, MRSA, Klebsiella pneumoniae, E. coli, Proteus vulgaris, Pseudomonas aeruginosa, Enterobacter cloacae, Acinetobacter lwoffi, Acinetobacter …; assay: In-vitro Petri dish comparison of Lots and control antibiotics (FIGS. 16-36); format: cell-based; conditions: identical size drops (diameters of ZOA); FIGS. 16-25
[2] = tested on: mouse embryonic stem cells and embryoid bodies; conditions: cited from earlier work
[3] = Study I: vancomycin peaks and troughs in patient; format: in vivo, human; conditions: 1.5 g BID, Q12, seven doses
Experimental: Fri 2/5: Detection of a Strep-A strain, confirmed by culture study. Shifted from gentamycin to vancomycin 1.5 g BID, Q12. Patient was kept on this dosing regimen until 2/8 (date of discharge from hospital).
Mon 2/8: Patient received the last of seven doses of vancomycin. Throughout all of this their peaks (within 1 hour of receiving vancomycin) and troughs (before receiving vancomycin) were normal (ranges not noted here). Patient was discharged from the hospital on this date.

MRSA = conditions: IV, 8 days following admission
Experimental: In this embodiment, the additional ingredient to hasten a third therapeutic tissue healing effect was added. This embodiment used vitamin D in a small but medically efficacious amount.

Compound | amount at which desired cellular responses occurred (HL-60 cells) | zones of inhibition of control active agents compared with the formulations of the invention [1] | other results
vitamin D | about 100 nM |  | 
CO[C@@]1(NC(=O)Cc2cccs2)C(=O)N2C(C(=O)O)=C(COC(N)=O)CS[C@@H]21 [Cefoxicillin] |  | considerably reduced zones of inhibition | 
C[S+](C)[O-] [DMSO, dimethyl sulfoxide] | less than 2% |  | subsequent retinoid-induced TGM2 expression (HL-60 cells; priming of the cells by pretreatment): increases; effect on epigenetic profiles [2]: upregulation of mRNA and protein expression
CN[C@H](CC(C)C)C(=O)N[C@H]1C(=O)N[C@@H](CC(N)=O)C(=O)N[C@H]2C(=O)N[C@H]3C(=O)N[C@H](C(=O)N[C@H](C(=O)O)c4cc(O)cc(O)c4-c4cc3ccc4O)[C@H](O)c3ccc(c(Cl)c3)Oc3cc2cc(c3O[C@@H]2O[C@H](CO)[C@@H](O)[C@H](O)[C@H]2O[C@H]2C[C@](C)(N)[C@H](O)[C@H](C)O2)Oc2ccc(cc2Cl)[C@H]1O [Vancomycin] |  | considerably reduced zones of inhibition | peaks (within 1 hour of receiving) and troughs (before receiving) [3]: normal; patient response to treatment (MRSA): did not respond
CC[C@H]1OC(=O)[C@H](C)[C@@H](O[C@H]2C[C@@](C)(OC)[C@@H](O)[C@H](C)O2)[C@H](C)[C@@H](O[C@@H]2O[C@H](C)C[C@H](N(C)C)[C@H]2O)[C@](C)(O)C[C@@H](C)C(=O)[C@H](C)[C@@H](O)[C@]1(C)O [Erythromycin] |  | considerably reduced zones of inhibition | 
